In patent US9371320B2, “Heterocyclic compound” (TAKEDA PHARMACEUTICAL COMPANY LIMITED, priority 2012, dated 2016):
Counter-ions that a name gives are not always drawn. Like-named read-outs stand apart in the source and are kept apart here.

Legend:
JAK1 = biological target: T1, JAK1 (Homo sapiens, UniProt P23458); assay: JAK1 enzyme inhibition test (LANCE method); format: biochemical; details: for inhibition at 10 µM: read-out: Inhibitory rate (%) JAK1 10 μM; for inhibition at 1 µM: test compound 1 μM, read-out: Inhibitory rate (%) JAK1 1 μM
T1 construct: purchased Invitrogen
Procedure: JAK1 Enzyme Inhibition Test
(§1) JAK1 enzyme inhibitory activity of test compounds was measured by LANCE method (PerkinElmer). First, a test compound diluted with assay buffer (50 mM HEPES (pH=7.5), 10 mM MgCl2, 1 mM EGTA, 2 mM DTT, 0.01% Tween20, 0.01% BSA) was added to 384-well plate at 2 μL each. Then, a JAK1 (Invitrogen) solution and a fluorescence-labeled peptide substrate (ULight-JAK1, PerkinElmer) solution diluted with assay buffer at 187.5 ng/mL and 300 nM, respectively were added at 2 μL each. Then, enzyme reaction was started by adding 2 μL each of ATP solution prepared with assay buffer at 150 μM. After the reaction at room temperature for 1 hr, Detection Buffer (PerkinElmer) prepared to be 20 mM EDTA, 4 nM europium-labeled anti-phosphotyrosine antibody (PerkinElmer) was added at 6 μL each. After standing at room temperature for 1 hr, fluorescence intensity (excitation wavelength 340 nm, fluorescence wavelength 665 nm, delay time 100 microsecond) was measured by a plate reader, Envision (PerkinElmer). The inhibitory activity of each compound was calculated as relative value where fluorescence intensity of a well without enzyme is considered as 100% inhibition.

Tyk2 = biological target: T2, Tyk2 (Homo sapiens, UniProt P29597); assay: Tyk2 enzyme inhibition test (LANCE method); format: biochemical; details: for inhibition at 1 µM: test compound 1 μM, read-out: Inhibitory rate (%) Tyk2 1 μM; for inhibition at 10 µM: test compound 10 μM, read-out: Inhibitory rate (%) Tyk2 10 μM
T2 construct: purchased Invitrogen
Procedure: Tyk2 Enzyme Inhibition Test
as §1, with “Tyk2 enzyme” for “JAK1 enzyme”, “a Tyk2” for “a JAK1”, “at 375” for “at 187.5”, “at 30” for “at 150”

T1 sequence (P23458 whole entry): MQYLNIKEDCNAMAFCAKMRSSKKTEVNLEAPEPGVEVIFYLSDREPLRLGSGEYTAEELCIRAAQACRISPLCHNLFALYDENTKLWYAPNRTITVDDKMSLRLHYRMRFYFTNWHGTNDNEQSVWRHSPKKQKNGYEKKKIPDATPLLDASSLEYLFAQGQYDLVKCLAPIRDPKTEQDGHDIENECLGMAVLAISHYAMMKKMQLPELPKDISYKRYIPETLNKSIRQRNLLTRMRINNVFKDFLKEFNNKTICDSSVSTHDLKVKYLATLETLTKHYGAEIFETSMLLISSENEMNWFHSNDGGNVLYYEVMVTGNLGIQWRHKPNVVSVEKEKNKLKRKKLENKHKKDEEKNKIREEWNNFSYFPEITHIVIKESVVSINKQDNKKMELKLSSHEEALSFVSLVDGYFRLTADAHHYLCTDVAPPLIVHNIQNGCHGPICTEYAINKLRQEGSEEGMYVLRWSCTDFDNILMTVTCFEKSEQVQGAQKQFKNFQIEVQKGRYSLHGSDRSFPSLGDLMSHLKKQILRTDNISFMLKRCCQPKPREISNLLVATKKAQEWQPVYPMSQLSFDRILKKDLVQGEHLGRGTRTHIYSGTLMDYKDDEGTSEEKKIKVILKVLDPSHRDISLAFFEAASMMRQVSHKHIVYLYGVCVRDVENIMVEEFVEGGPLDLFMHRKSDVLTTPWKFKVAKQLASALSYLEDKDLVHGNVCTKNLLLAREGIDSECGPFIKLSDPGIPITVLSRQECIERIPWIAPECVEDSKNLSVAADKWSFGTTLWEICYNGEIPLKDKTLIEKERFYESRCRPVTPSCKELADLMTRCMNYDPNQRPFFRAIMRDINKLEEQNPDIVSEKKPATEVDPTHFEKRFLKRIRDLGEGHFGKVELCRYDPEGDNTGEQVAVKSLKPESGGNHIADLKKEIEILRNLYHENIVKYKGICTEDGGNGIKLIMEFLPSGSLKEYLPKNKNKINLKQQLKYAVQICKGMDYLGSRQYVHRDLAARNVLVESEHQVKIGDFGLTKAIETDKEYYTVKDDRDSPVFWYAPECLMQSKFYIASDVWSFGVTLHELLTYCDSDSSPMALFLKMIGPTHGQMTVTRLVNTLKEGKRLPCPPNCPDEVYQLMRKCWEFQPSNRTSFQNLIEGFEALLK
T2 sequence (P29597 whole entry): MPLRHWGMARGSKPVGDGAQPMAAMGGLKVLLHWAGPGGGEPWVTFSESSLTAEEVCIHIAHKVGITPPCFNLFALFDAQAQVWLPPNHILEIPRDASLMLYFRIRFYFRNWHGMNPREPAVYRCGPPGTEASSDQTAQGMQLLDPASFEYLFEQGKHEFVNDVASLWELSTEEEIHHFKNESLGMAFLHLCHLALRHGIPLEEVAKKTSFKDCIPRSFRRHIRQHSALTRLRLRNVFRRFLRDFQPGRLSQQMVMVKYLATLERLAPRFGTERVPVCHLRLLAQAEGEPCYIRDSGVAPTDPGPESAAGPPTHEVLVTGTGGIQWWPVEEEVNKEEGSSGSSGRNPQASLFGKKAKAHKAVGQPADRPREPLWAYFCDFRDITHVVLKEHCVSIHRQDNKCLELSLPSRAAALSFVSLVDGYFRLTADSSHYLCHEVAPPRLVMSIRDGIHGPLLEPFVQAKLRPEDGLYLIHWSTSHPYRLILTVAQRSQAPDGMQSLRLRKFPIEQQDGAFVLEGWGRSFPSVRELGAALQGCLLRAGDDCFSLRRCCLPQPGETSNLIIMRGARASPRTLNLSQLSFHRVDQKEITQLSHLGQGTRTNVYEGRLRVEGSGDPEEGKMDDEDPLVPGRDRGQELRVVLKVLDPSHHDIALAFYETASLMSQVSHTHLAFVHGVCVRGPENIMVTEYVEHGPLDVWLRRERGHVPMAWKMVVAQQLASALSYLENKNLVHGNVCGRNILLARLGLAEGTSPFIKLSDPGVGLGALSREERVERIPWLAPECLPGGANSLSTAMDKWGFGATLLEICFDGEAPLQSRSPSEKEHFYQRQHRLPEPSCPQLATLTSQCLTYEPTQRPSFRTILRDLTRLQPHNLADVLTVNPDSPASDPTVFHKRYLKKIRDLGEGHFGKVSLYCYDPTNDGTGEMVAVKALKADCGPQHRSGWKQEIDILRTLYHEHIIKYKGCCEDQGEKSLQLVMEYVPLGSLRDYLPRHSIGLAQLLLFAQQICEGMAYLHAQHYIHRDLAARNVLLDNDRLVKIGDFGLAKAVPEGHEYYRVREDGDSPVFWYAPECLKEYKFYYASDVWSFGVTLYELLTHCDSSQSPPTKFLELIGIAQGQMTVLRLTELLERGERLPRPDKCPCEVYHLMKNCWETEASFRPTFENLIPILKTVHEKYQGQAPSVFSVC

| inhibition at 10 µM (JAK1; test compound 10 μM (Ex. 182-220), beside Tyk2 1 μM) [%] | inhibition at 1 µM (Tyk2) [%] | inhibition at 1 µM (JAK1) [%] | inhibition at 10 µM (JAK1; test compound 10 μM) [%] | inhibition at 10 µM (Tyk2) [%] | SMILES |
| --- | --- | --- | --- | --- | --- |
| 100 | 99 |  |  |  | NC(=O)c1cc(-c2nn([C@H]3CC[C@@H](O)CC3)c3cc[nH]c(=O)c23)cs1 [Example 184, 4-(1-(cis-4-hydroxycyclohexyl)-4-oxo-4,5-dihydro-1H-pyrazolo[4,3-c]pyridin-3-yl)thiophene-2-carboxamide] |
|  | 99 | 97 |  |  | Cn1cc(-c2cn(C3CCCC3)c3c(C#N)c[nH]c(=O)c23)cn1 [Example 131, 1-cyclopentyl-3-(1-methyl-1H-pyrazol-4-yl)-4-oxo-4,5-dihydro-1H-pyrrolo[3,2-c]pyridine-7-carbonitrile] |
|  | 87 | 91 |  |  | NS(=O)(=O)c1cccc(-c2nn(C3CCCC3)c3cc[nH]c(=O)c23)c1 [Example 159, 3-(1-cyclopentyl-4-oxo-4,5-dihydro-1H-pyrazolo[4,3-c]pyridin-3-yl)benzenesulfonamide] |
|  | 96 | 80 |  |  | N#Cc1c[nH]c(=O)c2c(-c3ccn[nH]3)cn(C3CCCC3)c12 [Example 125, 1-cyclopentyl-4-oxo-3-(1H-pyrazol-5-yl)-4,5-dihydro-1H-pyrrolo[3,2-c]pyridine-7-carbonitrile hydrochloride] |
|  | 91 | 17 |  |  | N#Cc1c[nH]c(=O)c2c(-c3cccc(N4CCOCC4)c3)cn(C3CCCC3)c12 [Example 140, 1-cyclopentyl-3-(3-(morpholin-4-yl)phenyl)-4-oxo-4,5-dihydro-1H-pyrrolo[3,2-c]pyridine-7-carbonitrile] |
|  | 99 | 93 |  |  | N#Cc1cccc(F)c1-n1nc(-c2ccc(N3CCOCC3)cc2)c2c(=O)[nH]ccc21 [Example 305, 3-fluoro-2-(3-(4-(morpholin-4-yl)phenyl)-4-oxo-4,5-dihydro-1H-pyrazolo[4,3-c]pyridin-1-yl)benzonitrile] |
|  | 92 | 99 |  |  | CC1(Cn2nc(-c3csc(C(N)=O)c3)c3c(=O)[nH]ccc32)COC1 [Example 141, 4-(1-((3-methyloxetan-3-yl)methyl)-4-oxo-4,5-dihydro-1H-pyrazolo[4,3-c]pyridin-3-yl)thiophene-2-carboxamide] |
|  | 85 | 44 |  |  | COC(=O)c1c[nH]c(=O)c2c(-c3csc(-c4noc(=O)[nH]4)c3)cn(C3CCCC3)c12 [Example 74, methyl 1-cyclopentyl-4-oxo-3-(5-(5-oxo-4,5-dihydro-1,2,4-oxadiazol-3-yl)-3-thienyl)-4,5-dihydro-1H-pyrrolo[3,2-c]pyridine-7-carboxylate] |
|  | 99 | 78 |  |  | O=C1CCCN1Cc1ccc(-c2nn(-c3c(F)cccc3F)c3c(Cl)c[nH]c(=O)c23)cc1 [Example 224, 7-chloro-1-(2,6-difluorophenyl)-3-(4-((2-oxopyrrolidin-1-yl)methyl)phenyl)-1,5-dihydro-4H-pyrazolo[4,3-c]pyridin-4-one] |
|  | 81 | 69 |  |  | NC(=O)c1cc(-c2cn(C3CCCC3)c3c(C(N)=O)c[nH]c(=O)c23)cs1 [Example 62, 3-(5-carbamoyl-3-thienyl)-1-cyclopentyl-4-oxo-4,5-dihydro-1H-pyrrolo[3,2-c]pyridine-7-carboxamide] |
|  | 100 | 94 |  |  | O=c1[nH]ccc2c1c(-c1ccc(N3CCOCC3)cc1)nn2-c1c(F)cccc1F [Example 179, 1-(2,6-difluorophenyl)-3-(4-(morpholin-4-yl)phenyl)-1,5-dihydro-4H-pyrazolo[4,3-c]pyridin-4-one] |
|  | 99 | 93 |  |  | O=c1[nH]ccc2c1c(-c1ccc(N3CCOCC3)nc1)nn2-c1c(F)cccc1F [Example 309, 1-(2,6-difluorophenyl)-3-(6-(morpholin-4-yl)pyridin-3-yl)-1,5-dihydro-4H-pyrazolo[4,3-c]pyridin-4-one] |
|  | 97 | 98 |  |  | CC(C)(C)n1nc(-c2csc(C(N)=O)c2)c2c(=O)[nH]ccc21 [Example 129, 4-(1-tert-butyl-4-oxo-4,5-dihydro-1H-pyrazolo[4,3-c]pyridin-3-yl)thiophene-2-carboxamide] |
|  | 33 | 4 |  |  | NC(=O)c1cc(F)cc(-c2nn(-c3c(F)cccc3F)c3cc[nH]c(=O)c23)c1 [Example 268, 3-(1-(2,6-difluorophenyl)-4-oxo-4,5-dihydro-1H-pyrazolo[4,3-c]pyridin-3-yl)-5-fluorobenzamide] |
|  | 98 | 90 |  |  | N#Cc1cccc(F)c1-n1nc(-c2ccc(N3CCOCC3)nc2)c2c(=O)[nH]ccc21 [Example 306, 3-fluoro-2-(3-(6-(morpholin-4-yl)pyridin-3-yl)-4-oxo-4,5-dihydro-1H-pyrazolo[4,3-c]pyridin-1-yl)benzonitrile] |
|  | 100 | 100 |  |  | O=C(NC1CC1)c1cc(-c2nn(C3CCCC3)c3cc[nH]c(=O)c23)cs1 [Example 156, 4-(1-cyclopentyl-4-oxo-4,5-dihydro-1H-pyrazolo[4,3-c]pyridin-3-yl)-N-cyclopropylthiophene-2-carboxamide] |
|  | 98 | 98 |  |  | O=C(O)c1cc(-c2nn(C3CCOCC3)c3cc[nH]c(=O)c23)cs1 [Example 23, 4-(4-oxo-1-(tetrahydro-2H-pyran-4-yl)-4,5-dihydro-1H-pyrazolo[4,3-c]pyridin-3-yl)thiophene-2-carboxylic acid] |
|  | 81 | 59 |  |  | CCOC(=O)c1ccc(-c2nn(-c3c(F)cccc3F)c3cc[nH]c(=O)c23)cn1 [Example 259, ethyl 5-(1-(2,6-difluorophenyl)-4-oxo-4,5-dihydro-1H-pyrazolo[4,3-c]pyridin-3-yl)pyridine-2-carboxylate] |
|  | 98 | 99 |  |  | CCC(COC)n1nc(-c2csc(C(N)=O)c2)c2c(=O)[nH]ccc21 (stereo not drawn) [Example 150, 4-(1-(1-methoxybutan-2-yl)-4-oxo-4,5-dihydro-1H-pyrazolo[4,3-c]pyridin-3-yl)thiophene-2-carboxamide] |
|  | 98 | 96 |  |  | N#Cc1c[nH]c(=O)c2c(-c3csc(C(N)=O)c3)nn(C3CCCC3)c12 [Example 165, 4-(7-cyano-1-cyclopentyl-4-oxo-4,5-dihydro-1H-pyrazolo[4,3-c]pyridin-3-yl)thiophene-2-carboxamide] |
|  | 99 | 100 |  |  | NS(=O)(=O)c1ccc(-c2nn(C3CCCC3)c3cc[nH]c(=O)c23)cc1 [Example 92, 4-(1-cyclopentyl-4-oxo-4,5-dihydro-1H-pyrazolo[4,3-c]pyridin-3-yl)benzenesulfonamide] |
|  | 97 | 99 |  |  | CNS(=O)(=O)c1ccc(-c2nn(C3CCCC3)c3cc[nH]c(=O)c23)cc1 [Example 223, 4-(1-cyclopentyl-4-oxo-4,5-dihydro-1H-pyrazolo[4,3-c]pyridin-3-yl)-N-methylbenzenesulfonamide] |
|  |  |  | 38 | 49 | O=c1[nH]ccc2c1c(C1=CCCCC1)nn2C1CCCC1 [Example 41, 3-(cyclohex-1-en-1-yl)-1-cyclopentyl-1,5-dihydro-4H-pyrazolo[4,3-c]pyridin-4-one] |
|  | 100 | 60 |  |  | O=C(NCCO)c1ccc(-c2nn(-c3c(F)cccc3F)c3c(Cl)c[nH]c(=O)c23)cc1 [Example 232, 4-(7-chloro-1-(2,6-difluorophenyl)-4-oxo-4,5-dihydro-1H-pyrazolo[4,3-c]pyridin-3-yl)-N-(2-hydroxyethyl)benzamide] |
|  | 99 | 99 |  |  | NC(=O)c1cc(-c2cn(C3CCCC3)c3cc[nH]c(=O)c23)cs1 [Example 4, 4-(1-cyclopentyl-4-oxo-4,5-dihydro-1H-pyrrolo[3,2-c]pyridin-3-yl)thiophene-2-carboxamide] |
|  |  |  |  | 38 | O=c1[nH]ccc2c(-c3ccccc3)nn(-c3ccccc3)c12 [Example 10, 1,3-diphenyl-1,6-dihydro-7H-pyrazolo[3,4-c]pyridin-7-one] |
